Tests used:
Type in all cases: in vivo
[1] = system: rat collagen induced arthritis (CIA) model; assay: Rat CIA model, histopathology of hind paw bone sections (safranin-O)
From the text: (§1) Upper left—naïve rat; upper right—vehicle rat; lower left—vehicle rat; lower right—compound 1007 treated rat. Micrographs are safranin-O stained sections of hind ankle paws of CIA rats, magnification 40×. To examine effect of Syk inhibitor 2,4-pyrimidinediamine compound in preventing bone degeneration, a rat collagen induced arthritis model was used (see, e.g., WO 2004/014382, incorporated herein by reference). Rats were immunized with bovine collagen II on day 0 and boosted on day 7. […] Animals were subsequently treated b.i.d. with inhibitor compound or vehicle alone. After 18 days of treatment, hind paw bone structure and integrity were evaluated by X-rays, histopathology, and serum bone marker COMP.

[2] = system: cartilage oligometrix matrix protein (COMP); assay: Rat CIA model, serum bone marker COMP; settings: FIG. 4
Description: as §1, with “To” for “Upper left—naïve rat; upper right—vehicle rat; lower left—vehicle rat; lower right—compound 1007 treated rat. Micrographs are safranin-O stained sections of hind ankle paws of CIA rats, magnification 40×. To”

[3] = system: rat collagen induced arthritis (CIA) model; assay: Rat collagen induced arthritis (CIA) model, hindlimb radiographs scored blindly; settings: b.i.d., 18 days of treatment
From the text: Data are the means±standard error, where n=13 per group, except for naïve (n=4). Radiographs of hindlimbs were obtained at the conclusion of the study and scored blindly. […] To examine effect of Syk inhibitor 2,4-pyrimidinediamine compound in preventing bone degeneration, a rat collagen induced arthritis model was used (see, e.g., WO 2004/014382, incorporated herein by reference). Rats were immunized with bovine collagen II on day 0 and boosted on day 7. […] Animals were subsequently treated b.i.d. with inhibitor compound or vehicle alone. After 18 days of treatment, hind paw bone structure and integrity were evaluated by X-rays, histopathology, and serum bone marker COMP.

COc1cc(Nc2ncc(F)c(Nc3ccc4c(n3)NC(=O)C(C)(C)O4)n2)cc(OC)c1OC [compound 1007, N4-(2,2-dimethyl-3-oxo-4H-5-pyrid[1,4]oxazin-6-yl)-5-fluoro-N2-(3,4,5-trimethoxyphenyl)-2,4-pyrimidinediamine]
severity of bone destruction (histopathological assessment of bone sections) ([1]; FIG. 2): significant reduction in severity of bone destruction | bone erosion (safranin-O stained sections of hind ankle paws) ([1]; FIG. 3, magnification 40x): reduction | osteoclast activity (safranin-O stained sections of hind ankle paws) ([1]; FIG. 3, magnification 40x): reduction | pannus formation (safranin-O stained sections of hind ankle paws) ([1]; FIG. 3, magnification 40x): reduction | serum levels of cartilage oligometrix matrix protein (COMP), a marker for collagen destruction [2]: reduction | bone erosion (radiograph score of hind paws) ([3]; 10 mg/kg, p<0.05): significant reduction in bone erosion | bone erosion (radiograph score of hind paws) ([3]; 30 mg/kg, p<0.001): significant reduction in bone erosion

Reference: patent US7576053B2, “Methods and compositions for treating degenerative bone disorders” (Rigel Pharmaceuticals, Inc., priority 2005, dated 2009)
